Experimental data published in US7678884B2, “Biologically active peptide and agent containing the same” (Seikagaku Corporation, priority 2003, dated 2010).
Ends that are not written are not given here.

Key:
[1] = system: Human-derived Periodontal Ligament Cells (PDL Cells); assay: Cell growth of PDL cells (cell number by Coulter counter); format: cell-based; details: peptide added at various concentrations to DMEM containing 2% FBS; counted on Days 4 and 6; versus control medium (FIG. 1, FIG. 2)
Excerpt: PDL cells were isolated from a healthy premolar carefully extracted from a patient who visited a hospital to extract teeth for orthodontic treatment so that periodontal ligament should not be damaged as far as possible, and cultured. The extracted tooth was washed with sterilized physiological saline and phosphate-buffered saline (PBS, Nissui), and then periodontal ligament existing in ⅓ of the tooth root at the center was scraped off with a sharp knife. The pieces of periodontal ligament were transferred to a plastic plate and minced into small fragments using a round-blade knife. Tissue fragments were left standing in a plate having a diameter of 35 mm (FALCON) and cultured in Dulbecco's modified Eagle medium (DMEM, Nissui) containing antibiotics (100 U/ml of penicillin G, 100 μg/ml of streptomycin and 250 μg/ml of gentamicin) and 10% fetal bovine serum (FBS, EQUITECH-BIO) at 37° C. under 5% CO2. […]
The PDL cells prepared in (1) were inoculated on a 24-well culture plate (FALCON) at a ratio of 5×10^3 cells/well. […] On Days 4 and 6, the cells were separated and dispersed by using PBS containing 0.08% trypsin and 0.04% ethylenediaminetetraacetic acid (EDTA), and cell number was counted by using a Coulter counter (COULTER Z1, Coulter Electronics). […]

PDL cells = assay: Calcification product forming ability of PDL cells (Dahl's calcium staining, alizarin red S); format: cell-based, human; details: peptide at various concentrations, 10 mM sodium β-glycerophosphate, three weeks after confluent state
Description: The following experiment was performed to examine effect of the peptide on calcification product forming ability of cells.
To assess calcification ability of cells, Dahl's calcium staining was performed. The PDL cells were inoculated on a 24-well culture plate at a ratio of 5×10^3 cells/well, and cultured in 2S-containing DMEM added with the peptide (a) or (c) at various concentrations and adjusted by addition of 10 mM sodium β-glycerophosphate. Three weeks after the cells reached a confluent state, the cells were washed with PBS, fixed with neutrally buffered formalin and stained with alizarin red S (Wako Pure Chemical Industries).

[2] = system: periodontal disease model; assay: Periodontal disease model (histology of defect at first molar of the upper jaw); format: in vivo, Wistar rats; details: one month after operation
Description: The following experiment was performed in order to examine action of the peptide of the present invention on a periodontal disease model. • (i) Preparation of Periodontal Disease Model 8-week old Wistar rats were systemically anesthetized with an ethyl carbamate solution in a volume of 0.5 ml per 100 g of body weight, and then the mesial gingiva of each first molar on the upper jaw was vertically incised. The gingival periosteal flap was reflected to expose the mesial alveolar bone of the first molar. Then, a defect having a length of about 2 mm and a buccolingual diameter of about 1 mm was formed from the alveolar bone crest of the same site towards the root apex side by using a fissure bur under pouring saline to expose the mesial root face of the first molar on the upper jaw. The root cementum and surface of dentin was removed together with the periodontal ligament attached to the exposed root face so as to make a shallow cavity. • (ii) Test Method At the aforementioned defect, a sample prepared with 1% PBS solution of sodium hyaluronate (weight average molecular weight: 900,000) was applied on the exposed root face, and the gingival periosteal flap was repositioned and sutured. By using a group of the animals applied with 1% PBS solution of sodium hyaluronate containing the peptide (a) (concentration of the peptide (a): 0.3 mg/ml) as the peptide group, a group of the animals applied with 1% PBS solution of sodium hyaluronate alone as the hyaluronic acid group, and a group of the animals applied with no substance before suture of the gingival periosteal flap for restoration as the control group, healing conditions were compared one month after the operation. The animals were euthanized with chloroform, and each experimental site was excised. The excised upper jaw bone was fixed by immersion in neutrally buffered formalin for 1 day and then decalcified over 2 days by using a rapid decalcifying solution (K-CX). The specimen was embedded in paraffin in a conventional manner, then a mesiodistal section having a thickness of […] and parallel to the longitudinal axis of the tooth root was prepared at the experiment site and stained with hematoxylin/eosin. Adhesion condition of periodontal tissue to the exposed surface of the tooth root at the defective site and the position of the apex of the alveolar bone were evaluated light microscopically. • (iii) Results (Findings)

MC3T3 cells = assay: Calcification product forming ability of MC3T3 cells (Dahl's calcium staining); format: cell-based, mouse; details: two weeks after confluent state
Description: To assess calcification ability of cells, Dahl's calcium staining was performed. The PDL cells were inoculated on a 24-well culture plate at a ratio of 5×10^3 cells/well, and cultured in 2S-containing DMEM added with the peptide (a) or (c) at various concentrations and adjusted by addition of 10 mM sodium β-glycerophosphate. […]
Further, the peptide (a), BMP2 and TGFβ were similarly examined by using the MC3T3 cells.

[3] = peptide (a) 0.3 mg/ml in 1% PBS solution of sodium hyaluronate

## VPAFPRQPGTPGVASL [Peptide (a)]
[1]
  PDL cell number (cell growth promoting effect): significantly increased
PDL cells
  calcification ability of the PDL cells: significantly increased
[2]; peptide (a) 0.3 mg/ml in 1% PBS solution of sodium hyaluronate applied on exposed root face, versus control and hyaluronic acid groups
  down-growth of the epithelium: observed to a less extent
[2]; [3]
  deposition of cementum with Sharpey's fibers on the exposed root surface: deposition of cementum with Sharpey's fibers, that is, new connective tissue attachment formation, was observed
  separation between the gingiva and the tooth root: no such separation was observed
[2]; peptide (a) 0.3 mg/ml in 1% PBS solution of sodium hyaluronate, versus control and hyaluronic acid groups
  bone regeneration at the periodontal defect: more active than in the other two groups
MC3T3 cells
  cell differentiation promoting effect (calcification) on MC3T3 cells: significant cell differentiation promoting effect
MC3T3 cells; comparison with BMP2
  cell differentiation promoting effect (calcification) on MC3T3 cells relative to BMP2: comparable to or higher than that of BMP2
